Key:
Format in all cases: cell-based
[1] = tested on: SU86 pancreatic cancer cell line (Su.86.86); assay: Cell survival and adhesion assay (luciferase), SU86; settings: 5 hours, SU86 cells overlayed onto human mesothelial cell monolayers, read-out: relative reduction in Luciferase activity, SU86 10 μM
Method: (§1) SU86 is a pancreatic cancer cell line. HT29 is a colon cancer cell line. BxPC3 is a pancreatic cell line. A2780 is an ovarian cancer cell line.
(§2) BxPc-3 and Su.86.86 pancreatic and HT-29 colon and A2780 ovarian cancer cell lines were purchased from ATCC and cultured in DMEM supplemented with 10% fetal bovine serum, glutamine, penicillin, and streptomycin. All cells were cultured at 37° C. in a humidified incubator in a 5% CO2 atmosphere. The cancer cell lines were transduced with a retrovirus containing pLuc-puro, a constitutive luciferase reporter and selected in […] media. Transient transfection of a full-length human c-FLIP construct in the vector pcDNA3 was performed as previously described. Scaife et al. Cancer Research 2002, 62: 6870-78.
(§3) Pancreatic cancer cell cultures (BxPc-3 and Su.86.86) and colon cancer (HT-29) and ovarian cancer (A2780) cells that were stably transfected with a firefly luciferase construct were transiently suspended with trypsin-PBS. 10^5 cells were overlayed onto confluent monolayers of human mesothelial cells in 96-well plates while simultaneously adding various concentrations of compounds of the invention or DMSO for 5 hours. The non-adherent cells were carefully washed away from the wells twice with 100 μl/well of blocking buffer (1% BSA in PBS) and twice again with ice-cold PBS. Adherent and surviving cells were detected by luciferase activity in a luminometer as follows. The cells were lysed in 0.1% TritonX-100, 25 mM Gly-Gly (7.8), MgSO4, 4 mM EGTA, 1 mM DTT. The total protein concentration was normalized with lysis buffer. 50 μl of cell lysate was added per well of a 96-well microtiter plate. 50 μl of luciferin substrate (Promega) was added per well and then the light output determined in a luminometer.

[2] = tested on: HT29 colon cancer cell line; assay: Cell survival and adhesion assay (luciferase), HT29; settings: HT-29, 5 hours, HT29 cells overlayed onto human mesothelial cell monolayers, read-out: relative reduction in Luciferase activity, HT29 10 μM
Method: as §1, §2, §3

[3] = tested on: BxPC3 pancreatic cell line; assay: Cell survival and adhesion assay (luciferase), BxPC3; settings: BXPC-3, 5 hours, BxPC3 cells overlayed onto human mesothelial cell monolayers, read-out: relative reduction in Luciferase activity, BxPC3 10 μM
Method: as §1, §2, §3

[4] = tested on: A2780 ovarian cancer cell line; assay: Cell survival and adhesion assay (luciferase), A2780; settings: 5 hours, A2780 cells overlayed onto human mesothelial cell monolayers, read-out: relative reduction in Luciferase activity, A2780 10 μM
Method: as §1, §2, §3

Row | SMILES | inhibition at 10 µM [1] | inhibition at 10 µM [2] | inhibition at 10 µM [3] | inhibition at 10 µM [4]
1 | CC(C)(C(=O)NCC1CC1)c1ccc(S(=O)(=O)/C=C/C#N)cc1 [Example 10] | 10 to 50% | < 10% | 10 to 50% | 50 to 85%
2 | CC(C)(C(=O)NCc1cccs1)c1ccc(S(=O)(=O)/C=C/C#N)cc1 [Example 15, 2-[4-((E)-2-Cyano-ethenesulfonyl)-phenyl]-N-thiophen-2-ylmethyl-isobutyramide] | 50 to 85% | < 10% | 50 to 85% | > 85%
3 | CC(C)(C(=O)NCC(F)F)c1ccc(S(=O)(=O)/C=C/C#N)cc1 [Example 11, 2-[4-((E)-2-Cyano-ethenesulfonyl)-phenyl]-N-(2,2-difluoro-ethyl)-isobutyramide] | 10 to 50% | < 10% | 10 to 50% | 10 to 50%
4 | CC(C)(c1ccc(S(=O)(=O)/C=C/C#N)cc1)c1nc2ccccc2o1 [Example 78, (E)-3-[4-(1-Benzoxazol-2-yl-1-methyl-ethyl)-benzenesulfonyl]-acrylonitrile] | 50 to 85% | > 85% | 50 to 85% | > 85%
5 | CN1CCN(C(=O)C(C)(C)c2ccc(S(=O)(=O)/C=C/C#N)cc2)CC1 [Example 9, (E)-3-{4-[1,1-Dimethyl-2-(4-methyl-piperazin-1-yl)-2-oxo-ethyl]-benzenesulfonyl}-acrylonitrile] | < 10% | < 10% | < 10% | < 10%
6 | CC(C)(C(=O)NCc1ccccc1)c1ccc(S(=O)(=O)/C=C/C#N)cc1 [Example 6, N-Benzyl-2-[4-((E)-2-cyano-ethenesulfonyl)-phenyl]-isobutyramide] | 50 to 85% | < 10% | 50 to 85% | > 85%
7 | Cc1ccc(O)c(NC(=O)C(C)(C)c2ccc(S(=O)(=O)/C=C/C#N)cc2)c1 [Example 69, 2-[4-((E)-2-Cyano-ethenesulfonyl)-phenyl]-N-(2-hydroxy-5-methyl-phenyl)-isobutyramide] | 10 to 50% | 50 to 85% | 10 to 50% | 50 to 85%
8 | CC(C)CNC(=O)C(C)(C)c1ccc(S(=O)(=O)/C=C/C#N)cc1 [Example 8, 2-[4-((E)-2-Cyano-ethenesulfonyl)-phenyl]-N-isobutyl-isobutyramide] | 50 to 85% | 10 to 50% | 50 to 85% | 50 to 85%
9 | Cc1ccc2oc(C(C)(C)c3cccc(S(=O)(=O)/C=C/C#N)c3)nc2c1 [Example 66, (E)-3-{3-[1-Methyl-1-(5-methyl-benzoxazol-2-yl)-ethyl]-benzenesulfonyl}-acrylonitrile; compound with trifluoro-acetic acid] | 50 to 85% | > 85% | 50 to 85% | > 85%
10 | CC(C)(C)c1ccc2cc(S(=O)(=O)/C=C/C#N)ccc2n1 [Example 70, (E)-3-(2-tert-Butyl-quinoline-6-sulfonyl)-acrylonitrile] | 50 to 85% | > 85% | 50 to 85% | > 85%
11 | N#C/C=C/S(=O)(=O)c1ccc(C2(C(=O)O)CC2)cc1 [Example 62, 1-[4-((E)-2-Cyano-ethenesulfonyl)-phenyl]-cyclopropanecarboxylic acid] | 10 to 50% | < 10% | < 10% | 10 to 50%
12 | CC(C)(c1ccc(S(=O)(=O)/C=C/C#N)cc1)c1nnc(-c2ccccc2)o1 [Example 72, (E)-3-{4-[1-Methyl-1-(5-phenyl-[1,3,4]oxadiazol-2-yl)-ethyl]-benzenesulfonyl}-acrylonitrile] | 50 to 85% | > 85% | 50 to 85% | > 85%
13 | CC(C)(C(=O)O)c1cccc(S(=O)(=O)/C=C/C#N)c1 [Example 2, 2-[3-((E)-2-Cyano-ethenesulfonyl)-phenyl]-2-methyl-propionic acid] | < 10% | 10 to 50% | 10 to 50% | < 10%
14 | CC(C)(C(=O)NCc1ccccn1)c1ccc(S(=O)(=O)/C=C/C#N)cc1 [Example 7, 2-[4-((E)-2-Cyano-ethenesulfonyl)-phenyl]-N-pyridin-2-ylmethyl-isobutyramide] | 10 to 50% | < 10% | 10 to 50% | 10 to 50%
15 | CC(C)(C(=O)NC1CCOCC1)c1ccc(S(=O)(=O)/C=C/C#N)cc1 [Example 13, 2-[4-((E)-2-Cyano-ethenesulfonyl)-phenyl]-N-(tetrahydro-pyran-4-yl)-isobutyramide] | < 10% | 10 to 50% | < 10% | < 10%
16 | CC(C)(C)c1cc(S(=O)(=O)/C=C/C#N)ccc1OCC(=O)NC1CCCCC1 [Example 63, 2-[2-tert-Butyl-4-((E)-2-cyano-ethenesulfonyl)-phenoxy]-N-cyclohexyl-acetamide] | 50 to 85% | > 85% | > 85% | > 85%
17 | CC(C)(C)c1cc(S(=O)(=O)/C=C/C#N)ccc1OCC(=O)O [Example 61, [2-tert-Butyl-4-((E)-2-cyano-ethenesulfonyl)-phenoxy]-acetic acid] | < 10% | < 10% | 10 to 50% | < 10%
18 | CC(C)(C(=O)Nc1ccccc1)c1ccc(S(=O)(=O)/C=C/C#N)cc1 [Example 5, 2-[4-((E)-2-Cyano-ethenesulfonyl)-phenyl]-N-phenyl-isobutyramide] | 10 to 50% | < 10% | 50 to 85% | 50 to 85%
19 | CC(C)(C(=O)NCc1ccc(Cl)cc1)c1ccc(S(=O)(=O)/C=C/C#N)cc1 [Example 14, N-(4-Chloro-benzyl)-2-[4-((E)-2-cyano-ethenesulfonyl)-phenyl]-isobutyramide] | 50 to 85% | 10 to 50% | 50 to 85% | > 85%
20 | CC(C)(C(=O)Nc1ccccc1O)c1ccc(S(=O)(=O)/C=C/C#N)cc1 [Example 73, 2-[4-((E)-2-Cyano-ethenesulfonyl)-phenyl]-N-(2-hydroxy-phenyl)-isobutyramide] | 10 to 50% | > 85% | 50 to 85% | 50 to 85%
21 | CC(C)(C(=O)NCCO)c1ccc(S(=O)(=O)/C=C/C#N)cc1 [Example 4, 2-[4-((E)-2-Cyano-ethenesulfonyl)-phenyl]-N-(2-hydroxy-ethyl)-isobutyramide] | < 10% | 10 to 50% | < 10% | < 10%
22 | CC(C)(C(=O)O)c1ccc(S(=O)(=O)/C=C/C#N)cc1 [Example 1, 2-[4-((E)-2-Cyano-ethenesulfonyl)-phenyl]-2-methyl-propionic acid] | 10 to 50% | 10 to 50% | < 10% | < 10%
